# Measured values taken from patent US12018023B2 (NERVIANO MEDICAL SCIENCES S.R.L., priority 2018, dated 2024).
# Key:
# [1] = target: T1, IDH1^R132C (Homo sapiens, UniProt O75874, R132C); assay: NADPH depletion assay, IDH1 R132C; assay type: biochemical
# T1 construct: purchased not specified
# Protocol: (§1) IDH mutated enzyme activity converting alpha-ketoglutarate to 2-hydroxyglutaric acid is measured using a NADPH depletion assay. In the assay the remaining cofactor is measured at the end of the reaction with the addition of a catalytic excess of diaphorase and resazurin, to generate a fluorescent signal in proportion to the amount of NADPH remaining. IDH1 WT enzyme as well as mutated isoforms IDH1^R132H, IDH1^R132C, and IDH^2R172K enzymes are commercially available proteins (see e.g. Sino Biological, Abcam, Active Motif or Creative BioMart).
# (§2) IDH1^R132H homodimer enzyme are diluted to 8 nM, in 10 μL of Assay Buffer (150 mM NaCl, 50 mM Tris-HCl pH 7.6, 10 mM MgCl2, 0.001% Triton X-100, 4 mM β-mercaptoethanol); 0.2 uL of test compound, previously serially diluted 1 to 3, >10 experimental points from 1 mM in DMSO, is added and the mixture is incubated for 15 minutes at room temperature. The reaction is started with the addition of 10 μL of Substrate Mix (12 uM NADPH, 3.4 mM alpha-ketoglutarate in Assay Buffer) and the mixture is incubated for 60 minutes at room temperature. The reaction is terminated with the addition of 5 μl of Detection Buffer (100 μg/mL diaphorase, 30 μM resazurin, in IX Assay Buffer), and is incubated for 15 minute before reading on a ViewLux as platereader at Ex544/Em590.
# Compounds are assayed for their activity against IDH1^R132C following the same assay as above with the following modifications: IDH1^R132C and alpha-ketoglutarate final concentrations in the Assay Buffer is 2 nM and 0.14 mM, respectively.
# [2] = target: T2, IDH1^R132H homodimer enzyme (Homo sapiens, UniProt O75874, R132H); assay: NADPH depletion assay, IDH1 R132H; assay type: biochemical
# T2 construct: purchased not specified
# T2 sequence (O75874 whole entry R132H): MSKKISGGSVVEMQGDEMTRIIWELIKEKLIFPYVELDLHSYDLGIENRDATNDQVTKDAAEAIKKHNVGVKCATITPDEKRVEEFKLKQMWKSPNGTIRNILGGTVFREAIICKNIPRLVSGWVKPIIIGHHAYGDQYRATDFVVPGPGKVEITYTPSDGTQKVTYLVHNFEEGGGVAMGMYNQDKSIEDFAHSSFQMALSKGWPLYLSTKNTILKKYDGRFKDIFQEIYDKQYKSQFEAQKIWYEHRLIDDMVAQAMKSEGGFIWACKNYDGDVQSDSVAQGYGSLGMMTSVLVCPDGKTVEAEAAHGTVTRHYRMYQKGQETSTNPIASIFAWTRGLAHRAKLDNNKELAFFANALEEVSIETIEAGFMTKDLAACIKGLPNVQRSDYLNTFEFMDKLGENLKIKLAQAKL
# Protocol: as §1, §2
# T1 sequence (O75874 whole entry R132C): as the sequence (O75874 whole entry R132H) above, with H132C counted along it
IC50 [1] [nM],IC50 [2] [nM],Structure (SMILES)
105,,"C=CC(=O)N1CCN(Cc2ccc([C@H](C)Nc3cc4c(ccc(=O)n4CC)cn3)cc2)CC1 [cpd 236, 7-{(S)-1-[4-(4-Acryloyl-piperazin-1-ylmethyl)-phenyl]-ethylamino}-1-ethyl-1H-[1,6]naphthyridin-2-one]"
811,3770,"CCn1c(=O)ccc2cnc(N[C@@H](C)c3ccc(C(=O)N4CCN(C(=O)OC(C)(C)C)CC4)cc3)nc21 [cpd 189, tert-butyl 4-(4-{(1S)-1-[(8-ethyl-7-oxo-7,8-dihydropyrido[2,3-d]pyrimidin-2-yl)amino]ethyl}benzoyl)piperazine-1-carboxylate]"
1420,4040,"C[C@H](Nc1ncc2ccc(=O)n(CC(C)(C)C)c2n1)c1ccc(CN2CCCC2)cc1 [cpd 111, 8-(2,2-dimethylpropyl)-2-({(1S)-1-[4-(pyrrolidin-1-ylmethyl)phenyl]ethyl}amino)pyrido[2,3-d]pyrimidin-7(8H)-one]"
1590,3060,"CC(Nc1ncc2ccc(=O)n(CCF)c2n1)c1ccc(CN2CCC(F)(F)CC2)cc1 (centres unmarked) [cpd 100, 2-[(1-{4-[(4,4-difluoropiperidin-1-yl)methyl]phenyl}ethyl)amino]-8-(2-fluoroethyl)pyrido[2,3-d]pyrimidin-7(8H)-one]"
213,,"C=CC(=O)N1CCN(Cc2ccc([C@H](C)Nc3ncc4ccc(=O)n(CC)c4n3)cc2)C[C@H]1C [cpd 208, 2-{[(1S)-1-(4-{[(3R)-4-acryloyl-3-methylpiperazin-1-yl]methyl}phenyl)ethyl]amino}-8-ethylpyrido[2,3-d]pyrimidin-7(8H)-one]"
391,697,"C[C@H](Nc1ncc2ccc(=O)n(CC(C)(C)C)c2n1)c1ccc(CO)c(F)c1 [cpd 90, 8-(2,2-dimethylpropyl)-2-({(1S)-1-[3-fluoro-4-(hydroxymethyl)phenyl]ethyl}amino)pyrido[2,3-d]pyrimidin-7(8H)-one]"
3540,,"CC(C)[C@H](C)n1c(=O)ccc2cnc(N[C@@H](C)c3ccc(N4CCNCC4)nc3)nc21 [cpd 180, 8-[(2S)-3-methylbutan-2-yl]-2-({(1S)-1-[6-(piperazin-1-yl)pyridin-3-yl]ethyl}amino)pyrido[2,3-d]pyrimidin-7(8H)-one]"
825,672,"C[C@H](Nc1ncc2ccc(=O)n(Cc3ccc(F)cc3C(F)(F)F)c2n1)c1ccc(CN2CCC(F)(F)CC2)cc1 [cpd 115, 2-{[(1S)-1-{4-[(4,4-difluoropiperidin-1-yl)methyl]phenyl}ethyl]amino}-8-[4-fluoro-2-(trifluoromethyl)benzyl]pyrido[2,3-d]pyrimidin-7(8H)-one]"
405,2340,"CC(C)[C@H](C)n1c(=O)ccc2cnc(N[C@@H](C)c3ccc(-c4ccnc(F)c4)cn3)nc21 [cpd 197, 2-{[(1S)-1-(2′-fluoro-3,4′-bipyridin-6-yl)ethyl]amino}-8-[(2S)-3-methylbutan-2-yl]pyrido[2,3-d]pyrimidin-7(8H)-one]"
307,459,"C[C@H](Nc1ncc2ccc(=O)n(CC(C(F)(F)F)C(F)(F)F)c2n1)c1ccc(CN2CCC(F)(F)CC2)cc1 [cpd 108, 2-{[(1S)-1-{4-[(4,4-difluoropiperidin-1-yl)methyl]phenyl)ethyl]amino)-8-[3,3,3-trifluoro-2-(trifluoromethyl)propyl]pyrido[2,3-d]pyrimidin-7(8H)-one]"
1160,2230,"C[C@H](Nc1ncc2ccc(=O)n(CC(C)(C)O)c2n1)c1ccc(CN2CCC(F)(F)CC2)cc1 [cpd 119, 2-{(S)-1-[4-(4,4-Difluoro-piperidin-1-ylmethyl)-phenyl]-ethylamino}-8-(2-hydroxy-2-methyl-propyl)-8H-pyrido [2,3-d]pyrimidin-7-one]"
183,,"C=CC(=O)N1CCN(Cc2ccc([C@H](C)Nc3ncc4ccc(=O)n(CC)c4n3)cc2)[C@@H](C)C1 [cpd 210, 2-{[(1S)-1-(4-{[(2S)-4-acryloyl-2-methylpiperazin-1-yl]methyl}phenyl)ethyl]amino}-8-ethylpyrido[2,3-d]pyrimidin-7(8H)-one]"
624,,"C=CC(=O)N1CCN(Cc2ccc([C@H](C)Nc3ncc4ccc(=O)n(CC)c4n3)cc2)[C@H](C)C1 [cpd 207, 2-{[(1S)-1-(4-{[(2R)-4-acryloyl-2-methylpiperazin-1-yl]methyl}phenyl)ethyl]amino}-8-ethylpyrido[2,3-d]pyrimidin-7(8H)-one]"
1670,,"C=CC(=O)N1CC[C@@H](Oc2ccc([C@H](C)Nc3ncc4ccc(=O)n(CC)c4n3)cc2)C1 [cpd 223, 2-{[(1S)-1-(4-{[(3R)-1-acryloylpyrrolidin-3-yl]oxy}phenyl)ethyl]amino}-8-ethylpyrido[2,3-d]pyrimidin-7(8H)-one]"
330,,"CCn1c(=O)ccc2cnc(N[C@@H](C)c3ccc(CN4CCN(C(=O)OC(C)(C)C)CC4)cc3)cc21 [cpd 232, 4-{4-[(S)-1-(1-Ethyl-2-oxo-1,2-dihydro-[1,6]naphthyridin-7-ylamino)-ethyl]-benzyl}-piperazine-1-carboxylic acid tert-butyl ester]"
68,,"CCC(=O)N1CCN(C(CC)c2ccc([C@H](C)Nc3ncc4ccc(=O)n(C(C)C)c4n3)cc2)CC1 (stereo partly drawn) [cpd 240, 2-{[(1S)-1-{4-[1-(4-propanoylpiperazin-1-yl)propyl]phenyl}ethyl]amino}-8-(propan-2-yl)pyrido[2,3-d]pyrimidin-7(8H)-one]"
525,,"C=CC(=O)N1CCN(Cc2ccc([C@H](C)Nc3ncc4ccc(=O)n(CC)c4n3)cc2)C[C@@H]1C [cpd 211, 2-{[(1S)-1-(4-{[(3S)-4-acryloyl-3-methylpiperazin-1-yl]methyl}phenyl)ethyl]amino}-8-ethylpyrido[2,3-d]pyrimidin-7(8H)-one]"

# Further lines, the molecule ahead of its results:
Structure (SMILES),IC50 [1] [nM],IC50 [2] [nM]
"C[C@H](Nc1ncc2cc(F)c(=O)n(CC(C)(C)C)c2n1)c1ccc(CN2CCCC(F)(F)C2)cc1 [cpd 57, 2-{(S)-1-[4-(3,3-Difluoro-piperidin-1-ylmethyl)-phenyl]-ethylamino}-8-(2,2-dimethyl-propyl)-6-fluoro-8H-pyrido [2,3-d]pyrimidin-7-one]",208,543
"C[C@H](Nc1ncc2ccc(=O)n(CC(C)(C)C)c2n1)c1ccccc1 [cpd 40, 8-(2,2-dimethylpropyl)-2-{[(1S)-1-phenylethyl]amino}pyrido[2,3-d]pyrimidin-7(8H)-one]",71,160
"Cc1cc(=O)n(CC(C)(C)C)c2nc(N[C@@H](C)c3ccc(CN4CCCC(F)(F)C4)cc3)ncc12 [cpd 60, 2-{(S)-1-[4-(3,3-Difluoro-piperidin-1-ylmethyl)-phenyl]-ethylamino}-8-(2,2-dimethyl-propyl)-5-methyl-8H-pyrido [2,3-d]pyrimidin-7-one]",139,341
"C[C@H](Nc1ncc2ccc(=O)n(CC(C)(C)C)c2n1)c1ccc(C(=O)NC2CCCC2)cc1 [cpd 80, N-cyclopentyl-4-[(1S)-1-{[8-(2,2-dimethylpropyl)-7-oxo-pyrido[2,3-d]pyrimidin-2-yl]amino}ethyl]benzamide]",282,444
"C[C@H](Nc1ncc2ccc(=O)n(Cc3ccccc3)c2n1)c1nc(-c2ccc(Cl)cc2)no1 [cpd 53, 8-benzyl-2-({(1S)-1-[3-(4-chlorophenyl)-1,2,4-oxadiazol-5-yl]ethyl}amino)pyrido[2,3-d]pyrimidin-7(8H)-one]",529,941
"C[C@H](Nc1ncc2ccc(=O)n(CC(C)(C)C)c2n1)c1ccc(C(=O)NC2CCCCC2)cc1 [cpd 81, N-cyclohexyl-4-[(1S)-1-{[8-(2,2-dimethylpropyl)-7-oxo-pyrido[2,3-d]pyrimidin-2-yl]amino}ethyl] benzamide]",172,288
"C[C@H](Nc1ncc2ccc(=O)n(CCF)c2n1)c1ccc(Cl)cc1 [cpd 17, 2-{[(1S)-1-(4-chlorophenyl)ethyl]amino}-8-(2-fluoroethyl)pyrido[2,3-d]pyrimidin-7(8H)-one]",1890,4910
"COc1ccc(Cn2c(=O)ccc3cnc(N[C@@H](C)c4ccc(Cl)cc4)nc32)cc1 [cpd 21, 2-{[(1S)-1-(4-chlorophenyl)ethyl]amino}-8-(4-methoxybenzyl)pyrido[2,3-d]pyrimidin-7(8H)-one]",586,2490
"CC(C)(C)Cn1c(=O)ccc2cnc(NC3(c4ccccc4)CCC3)nc21 [cpd 43, 8-(2,2-dimethylpropyl)-2-[(1-phenylcyclobutyl)amino]pyrido[2,3-d]pyrimidin-7(8H)-one]",1050,1640
"C[C@H](Nc1ncc2cc(F)c(=O)n(CC(C)(C)C)c2n1)c1ccccc1 [cpd 47, 8-(2,2-Dimethyl-propyl)-6-fluoro-2-((S)-1-phenyl-ethylamino)-8H-pyrido[2,3-d]pyrimidin-7-one]",597,1810
"C[C@H](Nc1ncc2ccc(=O)n(Cc3ccc(O)cc3)c2n1)c1ccc(Cl)cc1 [cpd 72, 2-{[(1S)-1-(4-chlorophenyl)ethyl]amino}-8-(4-hydroxybenzyl)pyrido[2,3-d]pyrimidin-7(8H)-one]",1240,2590
